This note sets out measurements from ChEMBL document CHEMBL1142986, “Synthesis of valiolamine and some precursors for bioactive carbaglycosylamines from (-)-vibo-quercitol produced by biogenesis of myo-inositol” (J Nat Prod, 2007).

The IC50 is the midpoint of a concentration-inhibition curve. The low end stands for inhibition by little substance, the high end for a need for much substance.

The target in this assay is Alpha-glucosidase MAL12 (Saccharomyces cerevisiae S288c, UniProt P53341). Kind of assay: Inhibition of baker's yeast alpha-glucosidase.
Sequence of Alpha-glucosidase MAL12 (P53341 whole entry): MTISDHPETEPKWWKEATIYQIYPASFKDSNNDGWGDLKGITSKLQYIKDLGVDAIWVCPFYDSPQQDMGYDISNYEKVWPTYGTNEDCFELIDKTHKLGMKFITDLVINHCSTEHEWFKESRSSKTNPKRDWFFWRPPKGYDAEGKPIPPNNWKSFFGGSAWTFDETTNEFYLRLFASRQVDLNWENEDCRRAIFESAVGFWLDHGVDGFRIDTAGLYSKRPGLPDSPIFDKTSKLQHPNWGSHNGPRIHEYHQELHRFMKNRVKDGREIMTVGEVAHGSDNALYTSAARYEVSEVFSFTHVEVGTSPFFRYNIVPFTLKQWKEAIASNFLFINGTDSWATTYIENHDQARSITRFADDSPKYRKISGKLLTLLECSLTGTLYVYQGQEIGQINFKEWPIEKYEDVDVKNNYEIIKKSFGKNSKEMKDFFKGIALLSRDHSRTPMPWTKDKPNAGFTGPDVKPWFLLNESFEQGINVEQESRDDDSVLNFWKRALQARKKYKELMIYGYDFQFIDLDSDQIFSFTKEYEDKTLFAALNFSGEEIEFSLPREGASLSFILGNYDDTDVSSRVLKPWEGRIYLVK

With `N[C@@H]1C[C@](O)(CO)[C@@H](O)[C@H](O)[C@H]1O`, half-maximal inhibition (IC50) was put at 36 µM.
